A value given as a limit tells only on which side of the number the result lay.

As a reminder, the GI50 is the concentration at which growth is held to half of that of the control. In general, TGI refers to the concentration at which net growth stops. Low readings indicate more potent growth arrest, high ones less potent growth arrest.

In data set [1] the test system is HL-60(TB). Particulars: HL-60(TB) (Leukemia), 48 h.
Description: Briefly, cell suspensions that were diluted according to the particular cell type and the expected target cell density (5000-40,000 cells per well based on cell growth characteristics) were added by pipette (100 μl) into 96-well microtiter plates. Inoculates were allowed a preincubation period of 24h at 37° C. for stabilization. Dilutions at twice the intended test concentrations of the test compounds were added at time zero in 100 μl aliquots to the microtiter plate wells. The plates were incubated for 48 h in 5% CO2 atmosphere and 100% humidity. The cells were assayed by using the sulforhodamine B assay (Rubinstein, L. V. et al. J. Natl. Cancer Inst. 82:1113-118, 1990; Skehan, P. et al., J. Natl. Cancer Inst. 82:1107-1112, 1990). The plates were read by a plate reader. The following parameters were calculated from the optical densities:
GI50, concentration of drug that causes 50% growth inhibition; where (T−T0)/(C−T0)×100=50
Data set [2] has as its system NCI-H522. The format is cell-based, human. The conditions noted are these: NCI-H522 (Non-Small Cell Lung Cancer), 48 h.
Data set [3] deals with SF-539. As to the kind of experiment: SRB anti-cancer assay, CNS Cancer. The format is cell-based, human. Particulars: SF-539 (CNS Cancer), 48 h.
Data set [4] addresses T1, adenosine deaminase (Type IV) from bovine spleen (Bos taurus, UniProt P56658).
T1 construct: adenosine deaminase (Type IV) from bovine spleen (a suspension in 3.2 M (NH4)2SO4, pH 6); from tissue; host or cells: bovine spleen
Description: Inhibition of adenosine deaminase (Example 9). The data set is classed as biochemical. Particulars: Lineweaver-Burk plot. The source says:
The concentration of inhibitor, the title compound, used for the present study ranged from 4.6×10^−5 to 9.2×10^−5 M. The enzyme concentration used for each of the assays was 0.0235 units/mL. As computed by the Lineweaver-Burk plot.

The target of data set [5] is T2, bacteriophage T7 RNA polymerase (Escherichia phage T7, UniProt P00573).
T2 construct: purchased Promega P2075
T2 sequence (P00573 whole entry): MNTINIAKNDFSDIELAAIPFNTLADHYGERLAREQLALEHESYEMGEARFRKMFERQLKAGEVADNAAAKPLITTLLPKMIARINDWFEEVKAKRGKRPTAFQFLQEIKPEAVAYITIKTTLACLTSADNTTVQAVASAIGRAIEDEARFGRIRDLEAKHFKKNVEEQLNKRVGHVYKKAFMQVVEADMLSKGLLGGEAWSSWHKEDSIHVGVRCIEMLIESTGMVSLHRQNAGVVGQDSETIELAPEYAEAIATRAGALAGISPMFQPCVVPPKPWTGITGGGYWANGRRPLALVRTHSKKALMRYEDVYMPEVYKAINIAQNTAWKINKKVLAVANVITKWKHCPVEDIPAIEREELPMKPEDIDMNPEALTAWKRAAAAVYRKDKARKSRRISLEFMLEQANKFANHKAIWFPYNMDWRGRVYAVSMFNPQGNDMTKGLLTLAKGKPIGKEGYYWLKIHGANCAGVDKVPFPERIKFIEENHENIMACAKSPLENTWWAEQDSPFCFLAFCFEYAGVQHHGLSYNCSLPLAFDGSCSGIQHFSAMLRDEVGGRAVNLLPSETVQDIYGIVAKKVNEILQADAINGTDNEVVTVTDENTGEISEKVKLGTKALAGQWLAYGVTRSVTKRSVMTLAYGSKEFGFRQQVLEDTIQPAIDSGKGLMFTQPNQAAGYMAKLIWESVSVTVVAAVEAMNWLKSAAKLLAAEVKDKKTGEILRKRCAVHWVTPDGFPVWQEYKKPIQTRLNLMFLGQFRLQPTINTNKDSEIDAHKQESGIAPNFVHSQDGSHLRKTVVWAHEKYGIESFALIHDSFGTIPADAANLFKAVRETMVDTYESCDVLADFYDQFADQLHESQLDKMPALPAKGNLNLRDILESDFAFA
As to the kind of experiment: Transcription catalyzed by T7 RNA polymerase. The data set is classed as biochemical. As to the method:
To show whether the “fat” nucleotide Compound 15-2 (FNTP) is incorporated into RNA during transcription, experiments were performed using bacteriophage T7 RNA polymerase (RNAP) and a synthetic 42-mer DNA template shown below that is annealed to a 17-nucleotide promoter specific for T7 RNAP. This promoter-template enables the synthesis of 25-mer RNA, and the purine analogue may be incorporated in positions +1, +11, +13, +15, +21, +22, and +23.
Transcription reaction conditions were optimized with the use of ^32P CTP for labeling RNA transcripts. Polyacrylimide gel electrophoresis of the transcription products obtained from the 42-mer template, using 1 mM each of four natural NTPs, reveled a 25-mer RNA as the major product, together with shorter and longer labeled transcripts (FIG. 9, lane 1). The additional bands observed are consistent with the known ability of T7 RNA polymerase to add non-coded residues at the 3′-end of transcripts. (Milligan, J. F., et al., Nuc. Acids Res., 15, 8783-8798, 1987) With the use of 1 mM nucleotide Compound 15-2 (FNTP), the yield of transcription was reduced (lane 2).
With the use of a synthetic 37-mer DNA template, annealed to a 17-nucleotide promoter for T7 RNAP as shown below, a 20 nucleotide-long transcript RNA was obtained when the reaction mixture contained all four NTPs in appropriate concentrations, along with many shorter “abortive” fragments. (Milligan, J. F., et al., Nuc. Acids Res., 15, 8783-8798, 1987). For the reaction with modified nucleotide, typically
the concentration of the appropriate natural nucleotide was reduced. […] (Milligan, J. F., et al., Methods in Enzymol., 180, 51-63, 1989.) In the present experiments, the synthesis of RNA was compared under standard conditions (using 4 NTPs in 0.2 mM concentration each) with the synthesis of RNA by using an additional “fat” nucleoside triphosphate Compound 15-2 (FNTP) in varying (0.05-10 mM) concentrations. The reaction mixtures were incubated at 37° C. for 2 hours, and the products were denatured in a buffer containing urea. The products were separated by 20% polyacrylamide-urea gel electrophoresis and visualized by autoradiography.
Transcription samples (total volume 10 μL contained: 40 mM Tris-HCl pH 8.1 with 6 mM MgCl2, 5 mM dithiothreitol (DTT), 1 mM spermidine, 0.01% Triton-X 100, 50 μg/mL bovine serum albumin, 250 nM synthetic DNA template with a promotor for T7 RNAP, 4 units of T7 RNA polymerase, and 0.2 mM ribonucleoside triphosphates. A single α^32P-labeled NTP was added for labeling (typicallly 1 μL of 10 mCi/mL ). Inhibition assays were monitored with varying concentrations (0.05-10 mM) of nucleotide Compound 15-2. Polyacrylamide gel (20%) electrophoresis was performed on slab gels (18 cm×16 cm, or 35 cm×44 cm) containing 8M urea. […]

The target of data set [6] is T3, guanine deaminase (guanase) from rabbit liver (Oryctolagus cuniculus, UniProt G1T386).
T3 construct: from tissue; host or cells: rabbit liver
T3 sequence (G1T386 1-454): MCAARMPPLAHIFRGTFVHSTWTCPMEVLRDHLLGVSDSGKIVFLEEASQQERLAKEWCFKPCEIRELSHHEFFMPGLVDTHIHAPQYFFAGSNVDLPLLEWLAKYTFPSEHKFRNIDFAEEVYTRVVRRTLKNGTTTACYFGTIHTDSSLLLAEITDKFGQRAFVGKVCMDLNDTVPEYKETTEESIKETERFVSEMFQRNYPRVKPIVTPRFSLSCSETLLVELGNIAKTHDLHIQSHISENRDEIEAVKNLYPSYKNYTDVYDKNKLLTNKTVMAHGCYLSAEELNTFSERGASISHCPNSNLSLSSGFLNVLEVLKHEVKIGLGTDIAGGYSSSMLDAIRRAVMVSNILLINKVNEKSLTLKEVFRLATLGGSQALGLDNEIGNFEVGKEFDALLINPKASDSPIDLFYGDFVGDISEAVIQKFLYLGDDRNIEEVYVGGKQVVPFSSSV
As to the kind of experiment: Guanine deaminase assay (Example 17). The data set is classed as biochemical. Particulars: Lineweaver-Burk plots. The procedure: Stock solutions of the substrate, enzyme, and inhibitors were prepared using a 50 mM Tris-HCl buffer (pH 7.4). The enzyme kinetics was followed by measuring the change in optical density (decrease in absorbance) per minute of the substrate guanine. By keeping the concentration of the inhibitor constant, and by varying the substrate concentration, a set of kinetic data was obtained. Additional sets of data were generated using different concentrations of the inhibitor. The substrate concentration in each assay ranged 6-20 μM; a total of six different concentrations were employed. The inhibitor concentration used in each assay was 30 or 40 μM. The amount of enzyme used in each assay was 0.0076 unit. The Ki for inhibition assays was computed from Lineweaver-Burk plots. The Lineweaver-Burk plot (1/V vs 1/[S]), as well as the linear regression analysis of kinetic data, were performed using the program Quattro Pro (version 6.01) for Windows.™.

Setting [7] is: read-out: LC50 (the source's name).

T1 sequence (P56658 whole entry): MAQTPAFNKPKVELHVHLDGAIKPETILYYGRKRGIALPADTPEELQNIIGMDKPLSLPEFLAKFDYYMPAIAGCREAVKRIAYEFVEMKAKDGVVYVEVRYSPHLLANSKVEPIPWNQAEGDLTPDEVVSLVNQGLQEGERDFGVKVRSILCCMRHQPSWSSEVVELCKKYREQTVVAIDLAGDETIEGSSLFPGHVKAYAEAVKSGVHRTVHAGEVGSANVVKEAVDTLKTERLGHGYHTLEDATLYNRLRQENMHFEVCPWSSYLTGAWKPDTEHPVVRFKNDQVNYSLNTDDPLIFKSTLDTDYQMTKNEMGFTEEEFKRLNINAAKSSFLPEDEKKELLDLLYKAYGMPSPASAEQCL

For `N=c1nc(N)c2ncn([C@@H]3O[C@H](COC(=O)c4ccccc4)[C@@H](OC(=O)c4ccccc4)[C@H]3OC(=O)c3ccccc3)c2c(N)n1` [4,8-Diamino-6H-6-imino-1(2′,3′,5′-tri-O-benzoyl-β-D-ribofuranosyl)imidazo[4,5-e][1,3]diazepine], in data set [1], the GI50 turned out to be 4.01 µM and the TGI turned out to be 18.3 µM. Besides, the CC50 in data set [1] (read-out: LC50) was 83.7 µM.

For `N=c1[nH]c(=O)c2ncn([C@@H]3O[C@H](CO)[C@@H](O)[C@H]3O)c2c(=O)[nH]1` [Compound 14-1, 6-Imino-6H-1-β-D-ribofuranosyl-4,5,7,8-tetrahydroimidazo[4,5-e][1,3]diazepine-4,8-dione], the concentration for 50% growth inhibition (GI50) in data set [2] and in data set [3] was over 100 µM in each case. Further, the TGI in data set [2] and in data set [3] was over 100 µM each time. The CC50 in data set [2] (setting [7]) and in data set [3] (setting [7]) was over 100 µM throughout.

For `N=c1nc(N)c2ncn([C@@H]3O[C@H](CO)[C@@H](O)[C@H]3O)c2c(N)n1` [Compound 14-2, 4,8-Diamino-6H-6-imino-1-β-D-ribofuranosylimidazo[4,5-e][1,3]diazepine], the “mode of inhibition of adenosine deaminase” value in data set [4] was “competitive inhibitor”. Further, the “incorporation into RNA during transcription (substrate for T7 polymerase)” value in data set [5] (42-mer DNA template) is “neither incorporation nor inhibition”. The “inhibition of T7 RNA polymerase-catalyzed transcription” value in data set [5] (42-mer and 37-mer DNA templates, 0.05-10 mM) is reported as “failed to cause inhibition of the transcription”. Also, the “inhibition of guanine deaminase (guanase), mode” value in data set [6] is “inactive”.
